ChEMBL document CHEMBL5579824, “Novel Hsp90-Targeting PROTACs: Enhanced synergy with cisplatin in combination therapy of cervical cancer” (Eur J Med Chem, 2024)
Active and inactive are the calls of the source. No cut-off for these calls is given here.

Key:
[1] = molecular target: T1, Protein cereblon/Heat shock protein HSP 90-alpha/Heat shock protein HSP 90-beta (Homo sapiens) (UniProt P07900+P08238+Q96SW2); assay: Protac activity at CRBN/Hsp90 in human SiHa cells assessed as induction of Hsp90 degradation at 1 uM incubated for 10 hrs by Western blot analysis; format: cell-based
[2] = tested on: SiHa; assay: Antiproliferative activity against human SiHa cells assessed as reduction in cell viability incubated for 72 hrs by CCK-8 assay; format: functional, cell-based
[3] = molecular target: T2, von Hippel-Lindau disease tumor suppressor/Heat shock protein HSP 90-alpha/Heat shock protein HSP 90-beta (Homo sapiens) (UniProt P07900+P08238+P40337); assay: Protac activity at VHL/Hsp90 in human SiHa cells assessed as induction of Hsp90 degradation at 1 uM incubated for 10 hrs by Western blot analysis; format: cell-based
T2 sequence (P08238 whole entry, looked up, other chains not shown): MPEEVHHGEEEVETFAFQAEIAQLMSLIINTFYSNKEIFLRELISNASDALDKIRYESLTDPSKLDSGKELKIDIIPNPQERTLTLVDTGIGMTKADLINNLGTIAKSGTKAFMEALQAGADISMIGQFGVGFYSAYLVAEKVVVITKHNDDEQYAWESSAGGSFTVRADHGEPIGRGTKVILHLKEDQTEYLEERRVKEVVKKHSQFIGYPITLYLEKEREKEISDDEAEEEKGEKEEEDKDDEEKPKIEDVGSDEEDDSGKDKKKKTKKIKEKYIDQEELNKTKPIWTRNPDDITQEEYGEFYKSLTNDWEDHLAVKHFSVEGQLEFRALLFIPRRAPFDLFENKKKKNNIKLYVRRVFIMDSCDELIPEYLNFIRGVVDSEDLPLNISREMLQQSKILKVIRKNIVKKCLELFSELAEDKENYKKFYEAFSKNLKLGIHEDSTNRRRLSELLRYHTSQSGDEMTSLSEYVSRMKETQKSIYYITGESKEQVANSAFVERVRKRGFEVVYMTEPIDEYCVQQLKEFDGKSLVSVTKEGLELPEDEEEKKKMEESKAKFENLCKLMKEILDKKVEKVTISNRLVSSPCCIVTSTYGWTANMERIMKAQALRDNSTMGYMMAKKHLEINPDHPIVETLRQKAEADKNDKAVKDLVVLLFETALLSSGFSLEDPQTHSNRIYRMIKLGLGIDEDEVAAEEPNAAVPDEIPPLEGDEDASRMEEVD
T2 sequence (P40337 whole entry, looked up, other chains not shown): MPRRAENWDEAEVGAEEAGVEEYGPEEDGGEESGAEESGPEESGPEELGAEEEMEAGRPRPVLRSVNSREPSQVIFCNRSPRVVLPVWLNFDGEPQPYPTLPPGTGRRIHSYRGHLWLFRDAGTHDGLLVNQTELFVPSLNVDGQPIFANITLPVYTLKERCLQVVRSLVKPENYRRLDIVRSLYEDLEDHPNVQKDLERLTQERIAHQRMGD

[4] = molecular target: T1, Protein cereblon/Heat shock protein HSP 90-alpha/Heat shock protein HSP 90-beta (Homo sapiens); assay: Protac activity at CRBN/Hsp90 in human SiHa cells assessed as induction of Hsp90 degradation at 1 uM incubated for 2 hrs by Western blot analysis; format: cell-based
[5] = molecular target: T1, Protein cereblon/Heat shock protein HSP 90-alpha/Heat shock protein HSP 90-beta (Homo sapiens); assay: Protac activity at CRBN/Hsp90 in human SiHa cells assessed as induction of Hsp90 degradation (causing hook effect) at > 0.1 uM incubated for 10 hrs by Western blot analysis; format: cell-based
[6] = molecular target: T2, von Hippel-Lindau disease tumor suppressor/Heat shock protein HSP 90-alpha/Heat shock protein HSP 90-beta (Homo sapiens); assay: Protac activity at VHL/Hsp90 in human SiHa cells assessed as induction of Hsp90 degradation (causing hook effect) at > 0.1 uM incubated for 10 hrs by Western blot analysis; format: cell-based

Compound | Activity [1] | IC50 [2] [µM] | other results
CC1(C)CC(=O)c2c(C(F)(F)F)nn(-c3ccc(C(N)=O)c(N[C@H]4CC[C@H](OC(=O)CNC(=O)CCCCCNc5cccc6c5CN(C5CCC(=O)NC5=O)C6=O)CC4)c3)c2C1 (some centres not stated) | Active | 0.46 | –
CC1(C)CC(=O)c2c(C(F)(F)F)nn(-c3ccc(C(N)=O)c(N[C@H]4CC[C@H](OC(=O)CNC(=O)CCCCCCCCCNc5cccc6c5CN(C5CCC(=O)NC5=O)C6=O)CC4)c3)c2C1 (some centres not stated) | – | 0.14 | –
Cc1ncsc1-c1ccc([C@H](C)NC(=O)[C@@H]2C[C@@H](O)CN2C(=O)[C@@H](NCCCCCCCC(=O)NCC(=O)O[C@H]2CC[C@H](Nc3cc(-n4nc(C(F)(F)F)c5c4CC(C)(C)CC5=O)ccc3C(N)=O)CC2)C(C)(C)C)cc1 | – | 0.17 | Activity [3]: Active
Cc1ncsc1-c1ccc([C@H](C)NC(=O)[C@@H]2C[C@@H](O)CN2C(=O)[C@@H](NCCCCCC(=O)NCC(=O)O[C@H]2CC[C@H](Nc3cc(-n4nc(C(F)(F)F)c5c4CC(C)(C)CC5=O)ccc3C(N)=O)CC2)C(C)(C)C)cc1 | – | 0.66 | –
CN1C(=O)CCC(N2Cc3c(NCCCCCCCC(=O)NCC(=O)O[C@H]4CC[C@H](Nc5cc(-n6nc(C(F)(F)F)c7c6CC(C)(C)CC7=O)ccc5C(N)=O)CC4)cccc3C2=O)C1=O (some centres not stated) | – | – | Activity [4]: inactive
CC1(C)CC(=O)c2c(C(F)(F)F)nn(-c3ccc(C(N)=O)c(N[C@H]4CC[C@H](OC(=O)CNC(=O)CCCCCCNc5cccc6c5CN(C5CCC(=O)NC5=O)C6=O)CC4)c3)c2C1 (some centres not stated) | Active | 0.24 | –
CC1(C)CC(=O)c2c(C(F)(F)F)nn(-c3ccc(C(N)=O)c(NCCCNC(=O)CCCCCNc4cccc5c4CN(C4CCC(=O)NC4=O)C5=O)c3)c2C1 (configuration not stated) | inactive | 9.61 | –
CC1(C)CC(=O)c2c(C(F)(F)F)nn(-c3ccc(C(N)=O)c(N[C@H]4CC[C@H](OC(=O)CN)CC4)c3)c2C1 [SNX 5422] | – | 0.014 | –
CC1(C)CC(=O)c2c(C(F)(F)F)nn(-c3ccc(C(N)=O)c(NCCCNC(=O)COCCOCCNc4cccc5c4CN(C4CCC(=O)NC4=O)C5=O)c3)c2C1 (configuration not stated) | inactive | 7.3 | –
CC1(C)CC(=O)c2c(C(F)(F)F)nn(-c3ccc(C(N)=O)c(N[C@H]4CC[C@H](OC(=O)CNC(=O)CCCCNc5cccc6c5CN(C5CCC(=O)NC5=O)C6=O)CC4)c3)c2C1 (some centres not stated) | – | 0.31 | –
CC1(C)CC(=O)c2c(C(F)(F)F)nn(-c3ccc(C(N)=O)c(NCCCNC(=O)CCCCCCCCCNc4cccc5c4CN(C4CCC(=O)NC4=O)C5=O)c3)c2C1 (configuration not stated) | inactive | 0.43 | –
Cc1ncsc1-c1ccc([C@H](C)NC(=O)[C@@H]2C[C@@H](O)CN2C(=O)[C@@H](NCCOCCOCC(=O)NCC(=O)O[C@H]2CC[C@H](Nc3cc(-n4nc(C(F)(F)F)c5c4CC(C)(C)CC5=O)ccc3C(N)=O)CC2)C(C)(C)C)cc1 | – | 0.03 | Activity [3]: inactive; Activity [6]: inactive
Cc1ncsc1-c1ccc([C@H](C)NC(=O)[C@@H]2C[C@@H](O)CN2C(=O)[C@@H](NCCCCCCCCCC(=O)NCC(=O)O[C@H]2CC[C@H](Nc3cc(-n4nc(C(F)(F)F)c5c4CC(C)(C)CC5=O)ccc3C(N)=O)CC2)C(C)(C)C)cc1 | – | 0.23 | Activity [3]: Active

Now from value to compound, other results behind:

Activity [1] | Compound | IC50 [2] [µM] | other results
inactive | CC1(C)CC(=O)c2c(C(F)(F)F)nn(-c3ccc(C(N)=O)c(NCCCNC(=O)CCCCCCCNc4cccc5c4CN(C4CCC(=O)NC4=O)C5=O)c3)c2C1 (configuration not stated) | 5.52 | –
Active | CC1(C)CC(=O)c2c(C(F)(F)F)nn(-c3ccc(C(N)=O)c(N[C@H]4CC[C@H](OC(=O)CNC(=O)CCCNc5cccc6c5CN(C5CCC(=O)NC5=O)C6=O)CC4)c3)c2C1 (some centres not stated) | 0.07 | –
inactive | CC1(C)CC(=O)c2c(C(F)(F)F)nn(-c3ccc(C(N)=O)c(N[C@H]4CC[C@H](NC(=O)CNC(=O)CCCCCCCCCNc5cccc6c5CN(C5CCC(=O)NC5=O)C6=O)CC4)c3)c2C1 (some centres not stated) | 0.75 | –
inactive | CC1(C)CC(=O)c2c(C(F)(F)F)nn(-c3ccc(C(N)=O)c(N[C@H]4CC[C@H](NC(=O)CCCCCCCCCNc5cccc6c5CN(C5CCC(=O)NC5=O)C6=O)CC4)c3)c2C1 (some centres not stated) | 0.19 | –
inactive | CC1(C)CC(=O)c2c(C(F)(F)F)nn(-c3ccc(C(N)=O)c(N[C@H]4CC[C@H](NCCCCCCCCCC(=O)Nc5cccc6c5CN(C5CCC(=O)NC5=O)C6=O)CC4)c3)c2C1 (some centres not stated) | 5.27 | –
inactive | CC1(C)CC(=O)c2c(C(F)(F)F)nn(-c3ccc(C(N)=O)c(N[C@H]4CC[C@H](OC(=O)CNC(=O)COCCOCCNc5cccc6c5C(=O)N(C5CCC(=O)NC5=O)C6=O)CC4)c3)c2C1 (some centres not stated) | 0.04 | Activity [5]: inactive
inactive | CC1(C)CC(=O)c2c(C(F)(F)F)nn(-c3ccc(C(N)=O)c(NCCCNC(=O)CCCCCCCCCCNc4cccc5c4CN(C4CCC(=O)NC4=O)C5=O)c3)c2C1 (configuration not stated) | 0.56 | –
